The supplement of paper PMC12592484

Tests used:
Assay in all cases: drug sensitivity score (DSS2, normalised partial AUC of dose-response, 72 h CellTiter-Glo viability) (DSS (dimensionless)); higher = more sensitive (stronger growth inhibition / cytotoxicity); extreme values may be limits of the assay
CAF#5 = test system: CAF#5 (primary prostate cancer-associated fibroblasts of myCAF-like type)
Method in brief: (§1)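 Five doses spanning a 10,000-fold range were pre-dispensed into 384-well plates, into which low-passage primary prostate cancer-associated fibroblasts, PF179T, WPMY-1, LNCaP and 22Rv1 cells were seeded. After 72 h, CellTiter-Glo 2.0 luminescence measured viability, scaled to vehicle and positive-control wells. Higher values of the drug sensitivity score, a BREEZE-computed partial area under the fitted logistic dose–response curve divided by the log of the upper asymptote, mean greater sensitivity.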

CAF#1 = test system: CAF#1 (primary prostate cancer-associated fibroblasts of myCAF-like type)
Method in brief: as §1

LNCAP = test system: LNCAP
Method in brief: as §1

CAF#6 = test system: CAF#6 (primary prostate cancer-associated fibroblasts of iCAF-like type)
Method in brief: as §1

CAF#2 = test system: CAF#2 (primary prostate cancer-associated fibroblasts of iCAF-like type)
Method in brief: as §1

CAF#7 = test system: CAF#7 (primary prostate cancer-associated fibroblasts of myCAF-like type)
Method in brief: as §1

WPMY-1 = test system: WPMY-1
Method in brief: as §1

PF179T = test system: PF179T
Method in brief: as §1

CAF#3 = test system: CAF#3 (primary prostate cancer-associated fibroblasts of myCAF-like type)
Method in brief: as §1

22Rv1 = test system: 22Rv1
Method in brief: as §1

CAF#4 = test system: CAF#4 (primary prostate cancer-associated fibroblasts of iCAF-like type)
Method in brief: as §1

Row | Compound | drug sensitivity score (CAF#5) | drug sensitivity score (CAF#1) | drug sensitivity score (LNCAP) | drug sensitivity score (CAF#6) | drug sensitivity score (CAF#2) | drug sensitivity score (CAF#7) | drug sensitivity score (WPMY-1) | drug sensitivity score (PF179T) | drug sensitivity score (CAF#3) | drug sensitivity score (22Rv1) | drug sensitivity score (CAF#4)
1 | CC(=O)c1cc2c(o1)C(=O)c1ccccc1C2=O [Napabucasin] (tested concentration range 2-20000 nM) | 11.7 | 11.2 | 19.5 | 16.8 | 22.6 | 9.5 | 19.8 | 21 | 16.4 | 17.7 | 22.4
2 | CC1(C)CCC(c2ccc(Cl)cc2)=C(CN2CCN(c3ccc(C(=O)NS(=O)(=O)c4ccc(N[C@H](CCN5CCOCC5)CSc5ccccc5)c(S(=O)(=O)C(F)(F)F)c4)cc3)CC2)C1 [Navitoclax] (tested concentration range 1-10000 nM) | 2.3 | 3 | 7.5 | 3.1 | 0 | 0.7 | 0.6 | 0 | 0 | 0 | 7.5
3 | CN1C(=O)N[C@H](Cc2c[nH]c3c(Cl)cccc23)C1=O [Necrostatin 2] (tested concentration range 1-10000 nM) | 0 | 0 | 0 | 0 | 0 | 0 | 0 | 0 | 0 | 0 | 0
4 | O=c1ncn2nc(Sc3ccc(F)cc3F)ccc2c1-c1c(Cl)cccc1Cl [Neflamapimod] (tested concentration range 1-10000 nM) | 0 | 0 | 1.2 | 0 | 0 | 0 | 0 | 0 | 0 | 0.8 | 0
5 | COc1nc(N)nc2c1ncn2[C@@H]1O[C@H](CO)[C@@H](O)[C@@H]1O [Nelarabine] (tested concentration range 1-10000 nM) | 0 | 0 | 0 | 0 | 0 | 0 | 0 | 0 | 0 | 0 | 0
6 | CCOc1cc2ncc(C#N)c(Nc3ccc(OCc4ccccn4)c(Cl)c3)c2cc1NC(=O)/C=C/CN(C)C [Neratinib] (tested concentration range 0.1-1000 nM) | 0 | 1.6 | 3.6 | 3.1 | 2.1 | 4.2 | 2 | 2.4 | 4.6 | 2.4 | 2.5
7 | Cc1cn(-c2cc(NC(=O)c3ccc(C)c(Nc4nccc(-c5cccnc5)n4)c3)cc(C(F)(F)F)c2)cn1 [Nilotinib] (tested concentration range 1-10000 nM) | 0.2 | 0.8 | 5.3 | 0 | 0.8 | 0 | 0 | 0 | 0 | 2.1 | 1.7
8 | CC1(C)NC(=O)N(c2ccc([N+](=O)[O-])c(C(F)(F)F)c2)C1=O [Nilutamide] (tested concentration range 1-10000 nM) | 0 | 0.1 | 2.9 | 0 | 0.1 | 0 | 0 | 0 | 0 | 0 | 2.7
9 | COC(=O)c1ccc2c(c1)NC(=O)/C2=C(\Nc1ccc(N(C)C(=O)CN2CCN(C)CC2)cc1)c1ccccc1 [Nintedanib] (tested concentration range 1-10000 nM) | 5.5 | 5.4 | 9.2 | 7.7 | 8.6 | 10.5 | 5.7 | 0 | 9.3 | 8.4 | 7
10 | NC(=O)c1cccc2cn(-c3ccc([C@@H]4CCCNC4)cc3)nc12 [Niraparib] (tested concentration range 1-10000 nM) | 1.7 | 1.5 | 5.5 | 1.1 | 3.9 | 3.7 | 4.4 | 5.8 | 3.2 | 7.5 | 2.5
11 | Cc1ccccc1CN1C(=O)C2=C(CCN(Cc3ccccc3)C2)N2CCN=C12 [ONC201] (tested concentration range 2.5-25000 nM) | 3.1 | 3.6 | 9.3 | 4.1 | 6.2 | 3.8 | 6.9 | 3.1 | 2.3 | 13.9 | 3.4
12 | O=C(c1cc(Cc2n[nH]c(=O)c3ccccc23)ccc1F)N1CCN(C(=O)C2CC2)CC1 [Olaparib] (tested concentration range 1-10000 nM) | 4.5 | 3.8 | 4.4 | 3.5 | 4.7 | 4.1 | 4.5 | 6.4 | 3 | 5.8 | 6.8
13 | COC(=O)C[C@](O)(CCCC(C)(C)O)C(=O)O[C@@H]1C(OC)=C[C@]23CCCN2CCc2cc4c(cc2[C@H]13)OCO4 [Omacetaxine] (tested concentration range 1-10000 nM) | 18.7 | 19.1 | 29.2 | 20 | 21.9 | 21.4 | 25.2 | 22 | 20.6 | 35 | 15.3
14 | CC1(C)CC[C@]2(NC(=O)C(C)(F)F)CC[C@]3(C)[C@H](C(=O)C=C4[C@@]5(C)C=C(C#N)C(=O)C(C)(C)[C@@H]5CC[C@]43C)[C@@H]2C1 [Omaveloxolone] (tested concentration range 1-10000 nM) | 18.5 | 19.8 | 23.9 | 5.3 | 23.2 | 4.8 | 18.4 | 14.8 | 4.6 | 14.4 | 17
15 | CC(C)c1cc(C(=O)N2Cc3ccc(CN4CCN(C)CC4)cc3C2)c(O)cc1O [Onalespib] (tested concentration range 0.2-2500 nM) | 8.6 | 10 | 18.2 | 10.5 | 12.1 | 11.2 | 21.1 | 11.6 | 11.8 | 18 | 7.8
16 | O=C(NCc1ccncc1)C12CC3CC(C1)CC(c1ccc(Cl)cc1)(C3)C2 [Opaganib] (tested concentration range 5-50000 nM) | 0.7 | 2.7 | 8.6 | 0.7 | 4.4 | 0.4 | 6.8 | 3.8 | 1.2 | 5.9 | 4.1
17 | COC[C@H](NC(=O)c1cnc(C)s1)C(=O)N[C@@H](COC)C(=O)N[C@@H](Cc1ccccc1)C(=O)[C@@]1(C)CO1 [Oprozomib] (tested concentration range 0.2-2500 nM) | 13.1 | 14 | 20.8 | 10.5 | 16 | 9.7 | 25.7 | 14.6 | 10.3 | 20.7 | 11.4
18 | C=CC(=O)Nc1cc(Nc2nccc(-c3cn(C)c4ccccc34)n2)c(OC)cc1N(C)CCN(C)C [Osimertinib] (tested concentration range 0.2-2500 nM) | 4.8 | 3.4 | 6.4 | 3 | 5 | 4.2 | 4.6 | 1.9 | 5.4 | 5.9 | 3.7
19 | O=C(O)C(=O)O.[NH-][C@@H]1CCCC[C@H]1[NH-].[Pt+2] [Oxaliplatin] (tested concentration range 10-100000 nM) | 9.4 | 9.7 | 26.1 | 7.3 | 10.6 | 7.4 | 9 | 8.8 | 8.3 | 13.8 | 9.1
20 | C=CCc1cccc(/C=N/NC(=O)CN2CCN(Cc3ccccc3)CC2)c1O [PAC-1] (tested concentration range 1-10000 nM) | 1.5 | 0.3 | 3.9 | 1.9 | 3.6 | 2 | 6.9 | 3.9 | 1.9 | 4.4 | 0.2
21 | O=C(Nc1cccnc1)N1CCC(Cc2cccc(Oc3ccc(C(F)(F)F)cn3)c2)CC1 [PF-3845] (tested concentration range 1-10000 nM) | 0 | 0 | 3.3 | 0 | 0 | 0 | 4.6 | 3 | 0.2 | 2.3 | 0
22 | COc1ccccc1S(=O)(=O)Nc1ccc2c(c1)CN(C)C(=O)N2 [PFI-1] (tested concentration range 3-30000 nM) | 1 | 3.1 | 6.4 | 1.8 | 2.1 | 3.4 | 4.2 | 2.6 | 4.3 | 6.6 | 1.3
23 | CN1CCN(c2cc(C(=O)Nc3ccc4c(c3)-c3c(c(C(N)=O)nn3-c3ccc(F)cc3)CC4)c(Cl)cn2)CC1 [PHA 408] (tested concentration range 1-10000 nM) | 5.9 | 7.2 | 7.4 | 1.2 | 7 | 3.7 | 4.6 | 1.4 | 2.9 | 6.1 | 4.2
